Blank lines part the entries; values can stand above or below the compound they belong to.
Assay: solvent given as SMILES

emission maximum (in ClCCl): 555 nm
SMILES: C(=C\c1ccncn1)/c1ccc(N(c2ccccc2)c2ccc(/C=C/c3ccncn3)cc2)cc1

emission maximum (in CC1CCCO1): 500 nm
SMILES: O=c1oc2ccc3cccc4c(O)c(Cl)c(c1Cl)c2c34

emission maximum (in ClC(Cl)Cl): 680 nm
SMILES: COc1ccccc1-c1cc2c(o1)=CC1=Cc3cc4oc(-c5ccccc5OC)cc4n3[B-](F)(F)[N+]=21

emission maximum (in ClCCl): 403 nm
SMILES: COc1cc2c(cc1OC)C1=C[C@H](c3ccc(C)cc3)C3(C(C#N)=C(C#N)N1CC2)c1ccccc1-c1ccccc13

emission maximum (in CC(C)O): 551 nm
emission maximum (in CCO): 550 nm
emission maximum (in CO): 542 nm
emission maximum (in O): 538 nm
SMILES: O=C([O-])c1ccccc1-c1c2cc(Br)c(=O)c(Br)c-2oc2c(Br)c([O-])c(Br)cc12

emission maximum (in C1CCOC1): 405 nm
SMILES: C1=Cc2ccccc2C(=Cc2ccc(-c3cc(-c4ccc(C=C5c6ccccc6C=Cc6ccccc65)cc4)cc(-c4ccc(C=C5c6ccccc6C=Cc6ccccc65)cc4)c3)cc2)c2ccccc21

emission maximum (in ClCCl): 453 nm
SMILES: Cc1cccc(C)c1N1C(c2ccccc2)=Cc2cccc[n+]2[B-]1(F)F

emission maximum (in CO): 388 nm
SMILES: COc1ccc(OC)c(C(=O)O)c1

emission maximum (in ClC(Cl)Cl): 620 nm
SMILES: Cc1cc2c(o1)=CC1=C(C(F)(F)F)c3cc4oc(C)cc4n3[B-](F)(F)[N+]=21

emission maximum (in ClCCl): 600 nm
SMILES: CC(C)(C)c1ccc2c(c1)c1cc(C(C)(C)C)ccc1n2-c1ccc(N(c2ccc(-c3ccc(-c4ccc(N(c5ccc(-n6c7ccc(C(C)(C)C)cc7c7cc(C(C)(C)C)ccc76)cc5)c5ccc(-n6c7ccc(C(C)(C)C)cc7c7cc(C(C)(C)C)ccc76)cc5)cc4)c4nsnc34)cc2)c2ccc(-n3c4ccc(C(C)(C)C)cc4c4cc(C(C)(C)C)ccc43)cc2)cc1

emission maximum (in ClCCl): 425 nm
SMILES: CC(C)c1cccc(C(C)C)c1N1C(=O)c2cccc3c(Oc4ccccc4)ccc(c23)C1=O

emission maximum (in CCO): 630 nm
emission maximum (in ClCCl): 607 nm
emission maximum (in O): 646 nm
SMILES: N#CC(C#N)=Cc1ccc(-c2cccc(-c3nc4ccccc4s3)c2O)s1

emission maximum (in C1CCCCC1): 642 nm
emission maximum (in CCOC(C)=O): 670 nm
SMILES: CC1=[N+]2C(=C(c3ccc(Br)cc3)c3ccc(C)n3[B-]2(F)F)C=C1c1cc2n(c1)[B-](F)(F)[N+]1=CC=CC1=C2c1c(C)cc(C)cc1C

emission maximum (in CN(C)C=O): 665 nm
emission maximum (in ClCCl): 670 nm
SMILES: C1=Cc2nc1c(-c1cccs1)c1ccc([nH]1)c(-c1cccs1)c1nc(c(-c3cccs3)c3ccc([nH]3)c2-c2cccs2)C=C1

More lines, now with the values behind:

SMILES: CCN(CC)c1ccc(C2=C3C(C)=CC(/C=C/c4ccc(OCCCN=[N+]=[N-])cc4)=[N+]3[B-](F)(F)n3c(C)cc(C)c32)cc1
emission maximum (in CO): 587 nm

SMILES: CCCCCCCCN1c2ccc(C#Cc3ccc(F)cc3)cc2Sc2cc(C=O)ccc21
emission maximum (in C1CCOC1): 513 nm
emission maximum (in CC#N): 538 nm
emission maximum (in CCCCCC): 488 nm
emission maximum (in CO): 466 nm
emission maximum (in CS(C)=O): 542 nm
emission maximum (in Cc1ccccc1): 507 nm
emission maximum (in ClC(Cl)Cl): 539 nm

SMILES: Cc1cc(-c2ccc(-n3c4ccccc4c4ccccc43)cc2)nc(-c2ccc(-n3c4ccccc4c4ccccc43)cc2)n1
emission maximum (in C1CCOC1): 423 nm
emission maximum (in CN(C)C=O): 461 nm
emission maximum (in Cc1ccccc1): 398 nm
emission maximum (in ClC(Cl)Cl): 426 nm

SMILES: Nc1cccc2cccc(N)c12
emission maximum (in CC#N): 413 nm
emission maximum (in CO): 427 nm
emission maximum (in CS(C)=O): 411 nm
emission maximum (in Cc1ccccc1): 403 nm

SMILES: CN(C)c1ccc(/C=C/c2ccnc(/C=C/c3ccc(N(C)C)cc3)n2)cc1
emission maximum (in C1CCOC1): 484 nm
emission maximum (in CC#N): 513 nm
emission maximum (in CC(C)=O): 523 nm
emission maximum (in CCCCCCC): 433 nm
emission maximum (in CS(C)=O): 527 nm
emission maximum (in Cc1ccccc1): 455 nm
emission maximum (in ClCCl): 493 nm

SMILES: CN(C)c1ccc2[c](c1)[Sn]([CH3])([CH3])[C]1=CC(=[N+](C)C)C=CC1=C2
emission maximum (in O): 628 nm

SMILES: CC1=CC(C)=[N+]2C1=C(c1ccc(N3CCCCC3)cc1)c1c(C)cc(C)n1[B-]2(F)F
emission maximum (in C1CCOC1): 515 nm
emission maximum (in CC#N): 511 nm
emission maximum (in CC(=O)C(C)(C)C): 516 nm
emission maximum (in CC(C)=O): 515 nm
emission maximum (in CCCCCC): 511 nm
emission maximum (in CCOC(C)=O): 515 nm
emission maximum (in CO): 514 nm

SMILES: COc1cc(N(c2ccccc2)c2ccc(C=C(C#N)C#N)c(OC)c2)ccc1C=C(C#N)C#N
emission maximum (in C1COCCO1): 520 nm
emission maximum (in CC#N): 571 nm
emission maximum (in CC(C)=O): 562 nm
emission maximum (in CCOC(C)=O): 532 nm
emission maximum (in CN(C)C=O): 576 nm
emission maximum (in CO): 558 nm
emission maximum (in Cc1ccccc1): 500 nm
emission maximum (in ClC(Cl)Cl): 524 nm
emission maximum (in ClCCl): 534 nm

SMILES: CN(C)c1ccc(/C=C/c2cc[n+](CCCCC[n+]3ccc(/C=C/c4ccc(N(C)C)cc4)cc3)cc2)cc1
emission maximum (in CC1COC(=O)O1): 603 nm
emission maximum (in CC#N): 605 nm
emission maximum (in CC(C)=O): 604 nm
emission maximum (in CC(C)O): 593 nm
emission maximum (in CCO): 598 nm
emission maximum (in CN(C)C=O): 607 nm
emission maximum (in CO): 600 nm
emission maximum (in CS(C)=O): 610 nm
emission maximum (in ClC(Cl)Cl): 574 nm
emission maximum (in O): 597 nm
emission maximum (in c1ccncc1): 596 nm

SMILES: O=C1c2ccc(N(c3ccccc3)c3ccccc3)cc2C(=O)c2ccc(N(c3ccccc3)c3ccccc3)cc21
emission maximum (in Cc1ccccc1): 601 nm
emission maximum (in c1ccc2c(c1)c1ccccc1n2-c1ccc(-c2ccc(-n3c4ccccc4c4ccccc43)cc2)cc1): 593 nm

SMILES: CC(C)[Si]1(C(C)C)c2cc(N(C)C)ccc2-c2ccc(C(F)(F)F)cc21
emission maximum (in C1CCCCC1): 402 nm
emission maximum (in CC#N): 440 nm
emission maximum (in CCO): 422 nm
emission maximum (in CCOCC): 410 nm
emission maximum (in CS(C)=O): 451 nm
emission maximum (in ClCCl): 423 nm
emission maximum (in c1ccccc1): 410 nm

SMILES: CCN(CC)c1ccc2cc3c([o+]c2c1)/C(=C/Nc1ccccc1)CCC3
emission maximum (in CCO): 647 nm
emission maximum (in ClC(Cl)Cl): 642 nm
emission maximum (in ClCCl): 647 nm

SMILES: O=C(/C=C/c1ccc(O)c(O)c1)O[C@H](Cc1ccc(O)c(O)c1)C(=O)O
emission maximum (in C1CCOC1): 397 nm
emission maximum (in CC#N): 413 nm
emission maximum (in CCCC#N): 406 nm
emission maximum (in CCO): 417 nm
emission maximum (in CN(C)C=O): 420 nm
emission maximum (in CO): 432 nm
emission maximum (in CS(C)=O): 432 nm
emission maximum (in ClCCl): 396 nm
emission maximum (in O): 444 nm

SMILES: CCCCCCCCCCOc1cc(OCCCCCCCCCC)cc(C2=C3C(/C=C/c4ccc(OC)cc4)=CC(/C=C/c4ccc(OC)cc4)=[N+]3[B-](F)(F)n3c(/C=C/c4ccc(OC)cc4)cc(C=Cc4ccc(OC)cc4)c32)c1
emission maximum (in ClC(Cl)Cl): 710 nm

SMILES: CC1(C)c2ccccc2N(c2ccc3c(c2)c2ccccc2c2nc4ccccc4nc32)c2ccccc21
emission maximum (in Cc1ccccc1): 541 nm
emission maximum (in c1cc(-c2cccc(-n3c4ccccc4c4ccccc43)c2)cc(-n2c3ccccc3c3ccccc32)c1): 549 nm

SMILES: Cc1ccc2c(c1)C(c1ccccc1)(c1ccccc1)c1cc(C)ccc1N2c1cc(C(C)C)c(B2c3ccccc3Sc3ccccc32)c(C(C)C)c1
emission maximum (in Cc1ccccc1): 487 nm
emission maximum (in O=P(c1ccccc1)(c1ccccc1)c1ccc2oc3ccc(P(=O)(c4ccccc4)c4ccccc4)cc3c2c1): 485 nm

SMILES: CC(=O)Nc1ccc(/C=C2\OC(=O)c3cc(N)ccc32)cc1
emission maximum (in CC#N): 455.79 nm
emission maximum (in CC(C)=O): 453.31 nm
emission maximum (in CC(C)CO): 482.86 nm
emission maximum (in CC(C)O): 483.09 nm
emission maximum (in CCCO): 484.26 nm
emission maximum (in CCO): 485.91 nm
emission maximum (in CCOC(C)=O): 443.66 nm
emission maximum (in CCOCC): 429.92 nm
emission maximum (in CO): 490.2 nm

SMILES: CN(C)c1ccc(C#Cc2nc(-c3ccccc3)nc3ccccc23)cc1
emission maximum (in C1CCCCC1): 423 nm
emission maximum (in C1CCOC1): 549 nm
emission maximum (in CC#N): 570 nm
emission maximum (in CS(C)=O): 584 nm
emission maximum (in ClCCl): 551 nm

SMILES: Oc1ccc(-c2cccs2)cc1-c1nc2ccccc2s1
emission maximum (in CCO): 428 nm
emission maximum (in ClCCl): 405 nm
emission maximum (in O): 566 nm
